# According to US20250388597A1, “BIFUNCTIONAL PHOTOCROSSLINKING PROBES FOR COVALENT CAPTURE OF PROTEIN-NUCLEIC ACID COMPLEXES IN CELLS” (UNIVERSITY OF SOUTHERN CALIFORNIA, priority 2022, published 2025):
# “Also recorded” adds a separate entry of the source.
# T1: MEF2A/DNA complex (Homo sapiens, UniProt Q02078)
# T1 construct: human MEF2A DBD (residues 2-95); made in house
# T1 sequence (Q02078 2-95): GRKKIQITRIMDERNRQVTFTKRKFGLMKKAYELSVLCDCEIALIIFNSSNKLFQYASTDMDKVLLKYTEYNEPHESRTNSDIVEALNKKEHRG
# T2: NFAT1/DNA complex (Homo sapiens, UniProt Q13469)
# T2 construct: human NFAT1 protein (residue 399-676, NFAT1-DBD)
# T2 sequence (Q13469 399-676): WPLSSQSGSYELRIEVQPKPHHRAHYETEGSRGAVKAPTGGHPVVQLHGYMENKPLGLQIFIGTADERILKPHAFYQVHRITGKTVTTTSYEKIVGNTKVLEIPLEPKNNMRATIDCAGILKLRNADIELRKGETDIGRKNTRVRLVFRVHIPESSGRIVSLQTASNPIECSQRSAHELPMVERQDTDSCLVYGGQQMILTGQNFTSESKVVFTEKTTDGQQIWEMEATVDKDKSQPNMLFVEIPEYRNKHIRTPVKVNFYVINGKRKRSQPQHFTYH
# T3: DNA binding by NFAT1 (Homo sapiens, UniProt Q13469)
# T3 construct: human NFAT1 protein (residue 399-676, NFAT1-DBD)
# T3 sequence (Q13469 399-676): T2 sequence (Q13469 399-676)
# T4: NFAT1 DNA binding domain (Homo sapiens, UniProt Q13469 Q13469:399-676)
# T4 sequence: T2 sequence (Q13469 399-676)
# B1: c1 NFAT 21-mer (dsDNA)
# DNA 1: TTCCACAGAGGAAAATTTGTT
# DNA 2: AACAAATTTTCCTCTGTGGAA
# Tests used:
# [1] = tested on: double stranded DNA and RNA; conditions: cited from earlier work; for efficiency of covalent crosslinking to DNA: long-wavelength (˜360 nm) UV illumination
# MEF2A/DNA complex = target: T1, MEF2A/DNA complex; assay: In vitro photo-crosslinking of assembled MEF2/DNA complex, read on denaturing SDS/urea gel or agarose gel; type: biochemical
# Source text: In vitro assays have confirmed the success and the efficiency of the demo probe (AMT-LC-SDA) in crosslinking double strand DNA of various contents and DNA-binding protein human myocyte enhancer factor 2A (MEF2A) (1-95 aa) (FIG. 5C-FIG. 5E). The solid crosslinking is confirmed for the probe with UV photo crosslinking conditions by denaturing or digestive approaches such as running with 8.3 M urea gel, SDS gel, combined with sample with overnight digestion of proteinase K at 65 Celsius and denatured at high temperature of 95 Celsius with SDS loading dye. […] Under these harsh evaluation conditions, the protein got digested on the crosslinking complex thoroughly, yet the remaining crosslinked amino acids residuals still have made the DNA to be in a larger size and shifted clearly compared to other controls, which is indicated by the bold shaped arrow. Agarose gel was also used for its bigger pore size to estimate the crosslinking efficiency (UV 2 hrs), estimated by the amount of the left free DNA, our probe has reached around 30-60% efficiency (FIG. 5E), which is much higher than the UV-initiated protein DNA crosslinking without the use of a probe (10-20%) as reported in Nature Communications, volume 11, Article number: 3019 (2020). […] This further supports the idea of applying this probe for replacement of formaldehyde, it crosslinks the protein only within the proximity of nucleic acids, thereby largely reducing the random protein-protein crosslinking noise and helps to preserve the native state of protein epitopes.
# The BFPX probe 4AMT-LC-SDA was synthesized with good yield by the NHS-amine chemistry using psoralen and diazirine derivatives (FIG. 5A, FIG. 5B). To test its photo crosslinking ability, human transcription factor MEF2A (the MADS-box/MEF2 domain) and double strand DNA containing a MEF2 binding site were used. We first used electrophoresis mobility shift assay (EMSA) to validate the activity of the purified recombinant MEF2A DNA-binding domain. After finding out the optimal protein to DNA ratio, the in vitro assembled MEF2/DNA complex was then subject to photocrosslinking in the presence or absence of the 4AMT-LC-SDA probe with or without UV illumination. Multiple other control experiments were carried out in parallel to test the specificity of photocrosslinking between the DNA and MEF2. Specifically, parameters such as protein/DNA amounts (1:[…]), ratio, UV time (10 m to 4 hrs), wavelength (320 to 360 nm), LV source (mercury long lamp, LED) and their distance to the reaction mixture have been optimized along the course. The MEF2 Protein and DNA were incubated first to mimic an in vivo binding mode and stoichiometry, and then the mixture was incubated with our 4AMT-LC-SDA probe to undergo UV illumination. The results were evaluated by running denaturing gels (SDS in FIG. 5D, or Urea in FIG. 5C) against the high temperature denatured reaction mixtures and checking the respective protein (silver stain) or DNA (FAM label) signals. To further rule out any other possible false positiveness during loading, proteinase K digestion was applied to all the samples including the negative controls with SDS at 65 degrees.
# NFAT1/DNA complex = target: T2, NFAT1/DNA complex; assay: In vitro photo-crosslinking of assembled NFAT1/DNA complex, denaturing SDS gel; type: biochemical; conditions: for formation of covalent NFAT1/DNA crosslinked complex stable under denaturing SDS-PAGE: probe + UV 365 nm, 2% SDS, boil 10 min
# Protocol: The probe binding and UV crosslinking were carried out as described in FIG. 5G and FIG. 7. The crosslinked complexes (lane 3 and lane 6) were further treated with DTT (100 mM, heat 50 degree C. for 30 min). The reaction mixtures were run on SDS gel and visualized by FAM fluorescence for DNA (top) and by Coomassie blue stain for protein (bottom) as described in FIG. 7. FIG. 7 depicts denaturing SDS gel analysis of covalent capture of in vitro assembled MEF2/DNA and NFAT1/DNA complexes by the BFPX probe, SPB-AAD. […] The protein/DNA complexes are incubated at room temperature for 30 min, and treated with various combination of BFPX probe (SPB-AAD) and UV illumination as described in FIG. 5G. […] The reaction mixtures were added SDS loading dye (2% SDS), boil for 10 min, and run on SDS gel (Bio-Rad Any Kd gradient gel). The same gel was visualized by FAM fluorescence for DNA (top) and by Coomassie blue stain for protein (bottom). FIG. 8C depicts denaturing SDS gel analysis of covalent capture of in vitro assembled MEF2/DNA and NFAT1/DNA complexes by the BFPX probe, SPB-PEG3-AAD. […] The reaction mixtures were run on SDS gel and visualized by FAM fluorescence for DNA (top) and by Coomassie blue stain for protein (bottom) as described in FIG. 7. […] Typically protein and DNA are mixed to bind at room temperature for 30 min, followed by addition of BFPX probes for an additional 15 min and then UV illumination. In the case of FA treatment, the reaction time is 10 min at room temperature and then quenched by 250 mM glycine. […] The UV illumination (as indicated by a positive sign) was carried out using a LED Chip (21.4 mm×21.4 mm, 365-370 nm, 30 Watt, sample distance 2 cm, exposure time 2-15 min at 4 degree C., here the exposure time is 15 min). […] The small amount of single stranded DNA is due to incomplete annealing. The higher smearing bands are most likely non-specific protein complexes. Neither of these experimental imperfections affected the main conclusion of this experiment because the double stranded-DNA bands and the specific NFAT-DNA complex bands (the middle sharp bands) are well defined and can be monitored without the interference of the other bands. […] The gel was visualized by Cy5 fluorescence for DNA. FIG. 12E depicts further characterization of BFPX crosslinking of NFAT1/DNA complexes using different DNA substrates and staining techniques. Two unlabeled DNA substrates containing a core NFAT-binding site and different flanking bases and sequence lengths ([…] ID NO: 4), 21 mer, c2: [NT] ID NO: 5), 16 mer) were used to bind the NFAT1-DBD as described in FIG. 12C. […] The reactions were then analyzed by SDS PAGE under denaturing condition as described in FIG. 12D. Because the DNA is unlabeled, the gel was stained using either cyanine-based dye (SYBR Safe) or Coomassie Blue stain (CB). […] The different size of the NFAT-c1DNA complexes (lane 2) and NFAT-c2DNA complexes (lane 4) was resolved by loading reactions of lane 2 (2a, 2b and 2c) and lane 4 (4a, 4b and 4c) as triplicates side-by-side on the same gel (lower panel) using either SYBR and CB stain. FIG. 12F depicts time course of BFPX crosslinking of NFAT1/DNA complexes. […] The reactions at different time points were then analyzed on SDS gel as described in FIG. 12D. […] When the UV exposure time is longer than 5 min, a significant amount of crosslinked NFAT-DNA complex can be formed with UV illumination without SPB-AAD.
# Nkx2.5/DNA complex = target: T5, Nkx2.5/DNA complex (Homo sapiens, UniProt P52952); assay: BFPX crosslinking of Nkx2.5/DNA complexes, SDS PAGE; type: biochemical; conditions: denaturing SDS PAGE; probes with UV
# T5 construct: human Nkx2.5 DBD (the homeodomain); made in house
# Protocol: FIG. 12H depicts BFPX crosslinking of Nkx2.5/DNA complexes. […] The various treatment combinations were list above the gel. The reactions were then analyzed by SDS PAGE under denaturing condition as described in FIG. 12D.
# DNA binding by NFAT1 = target: T3, DNA binding by NFAT1; assay: Native EMSA of the effect on DNA binding by NFAT1; type: biochemical; conditions: FIG. 12C; increasing concentrations; probes with UV 365 nm 15 min; compared to control lane 3
# Protocol: All binding reactions contain 10 μM 27 mer dsDNA (5′6-FAM labeled) with a NFAT-binding site, and various combinations of NFAT1 protein (14 μM), FA (1% v/v), 4AMT-LC-SDA (20 μM), with or without UV illumination (365 nm, LED, 30 Watt, sample distance 2 cm, exposure time 15 min at 4 degree C.). 10 μl of the binding reaction is run on a 10% PAGE 0.5×TBE gel. The same gel was visualized by FAM fluorescence for DNA (top) and by Coomassie blue stain for protein (bottom). The higher smearing bands in lane 3, 8, 9, and 10 are most likely non-specific protein complexes often seen when an excessive amount of protein is used to ensure all DNA is bound.
# The binding reactions were performed in a buffer of 20 mM Hepes pH 7.6, 150 mM NaCl, 1 mM DTT, 12% glycerol. Typically protein and DNA are mixed to bind at room temperature for 30 min, followed by addition of BFPX probes for an additional 15 min and then UV illumination. In the case of FA treatment, the reaction time is 10 min at room temperature and then quenched by 250 mM glycine. When included (as indicated by a positive sign), the binding reaction contains 10 μM 27 mer dsDNA (Cy5-labeled) with a NFAT-binding site (the antigen receptor response element 2, ARRE2, from the IL-2 promoter, 5′-Cy5-[sequence]-3′ (SEQ ID NO: 2), the complementary strand is not labeled), 24 μM of the DNA binding domain (DBD) of human NFAT1 protein (residue 399-676, NFAT1-DBD). The UV illumination (as indicated by a positive sign) was carried out using a LED Chip (21.4 mm×21.4 mm, 365-370 nm, 30 Watt, sample distance 2 cm, exposure time 2-15 min at 4 degree C., here the exposure time is 15 min). Half of the binding reaction (7.5 μl) was run on a 10% PAGE 0.5×TBE gel and visualized by Cy5 fluorescence on DNA. The small amount of single stranded DNA is due to incomplete annealing. The higher smearing bands are most likely non-specific protein complexes. Neither of these experimental imperfections affected the main conclusion of this experiment because the double stranded-DNA bands and the specific NFAT-DNA complex bands (the middle sharp bands) are well defined and can be monitored without the interference of the other bands.
# The presence of both DNA and protein in the same shifted band can be checked by the FAM fluorescence signal (top) and Coomassie stain (bottom), respectively (free NFAT is positively charged and not observable under the EMSA condition).
# p53/DNA complex = target: T6, p53/DNA complex (Homo sapiens, UniProt P04637); assay: BFPX crosslinking of p53/DNA complexes, SDS PAGE; type: biochemical; conditions: denaturing SDS PAGE; probes with UV; vs no-protein controls
# T6 construct: the human tumor suppressor p53 DBD; made in house
# Protocol: FIG. 12I depicts BFPX crosslinking of p53/DNA complexes. The binding reactions between the human tumor suppressor p53 DBD and a 37 mer Cy5 labeled DNA containing a consensus p53 tetramer binding site (5′-/5Cy5/-[…]-3′, (SEQ ID NO: 8)) were set up and treated with BFPX probes and UV illumination as described in FIG. 12C. The various treatment combinations were list above the gel. The reactions were then analyzed by SDS PAGE under denaturing condition as described in FIG. 12D. […] Because p53 bind this this DNA substrate as a tetramer, crosslinked p53/DNA complexes may contain one or more p53 protein molecules. While the monomeric p53/DNA complex appears to be the dominant crosslinked protein-DNA complexes, higher-molecule weight species were visible in SDS gel, which may correspond to crosslinked higher-order p53/DNA complex.
# NFAT1 DNA binding domain = target: T4, NFAT1 DNA binding domain; assay: SPB-AAD 100 uM + UV365 photocrosslinking, SDS-PAGE
# Protocol: The UV illumination (as indicated by a positive sign) was carried out using a LED Chip (21.4 mm×21.4 mm, 365-370 nm, 30 Watt, sample distance 2 cm, exposure time 2-15 min at 4 degree C., here the exposure time is 15 min). Half of the binding reaction (7.5 μl) was run on a 10% PAGE 0.5×TBE gel and visualized by Cy5 fluorescence on DNA. The small amount of single stranded DNA is due to incomplete annealing. The higher smearing bands are most likely non-specific protein complexes. Neither of these experimental imperfections affected the main conclusion of this experiment because the double stranded-DNA bands and the specific NFAT-DNA complex bands (the middle sharp bands) are well defined and can be monitored without the interference of the other bands.
# FIG. 12D depicts the other half of binding reaction from the above experiments (FIG. 12C) were added SDS loading dye (2% SDS), boil for 10 min, and run on SDS gel (4-15% gradient gel). The gel was visualized by Cy5 fluorescence for DNA.
# FIG. 12E depicts further characterization of BFPX crosslinking of NFAT1/DNA complexes using different DNA substrates and staining techniques. […] The reactions were then analyzed by SDS PAGE under denaturing condition as described in FIG. 12D. […]
# T6 sequence (P04637 102-292 limits assumed, one chain of several): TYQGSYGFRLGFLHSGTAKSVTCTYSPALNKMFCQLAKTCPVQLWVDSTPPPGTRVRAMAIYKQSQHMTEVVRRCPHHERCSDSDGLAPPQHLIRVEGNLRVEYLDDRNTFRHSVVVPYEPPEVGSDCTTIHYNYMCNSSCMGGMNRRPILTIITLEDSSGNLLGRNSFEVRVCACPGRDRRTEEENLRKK
# T5 sequence (P52952 138-197 limits assumed, one chain of several): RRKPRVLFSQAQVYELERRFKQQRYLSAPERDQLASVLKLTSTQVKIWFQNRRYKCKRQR
molecule,measurement,setting,value
"Cc1oc2c(C)c3oc(=O)cc(C)c3cc2c1CN [4AMT, 4′-aminomethyltrioxsalen]",efficiency of covalent crosslinking to DNA,[1],up to 80%
Cc1oc2c(C)c3oc(=O)cc(C)c3cc2c1CNC(=O)CCSSCCNC(=O)CCC1(C)N=N1 [4AMT-SDAD],release of crosslinked MEF2/DNA complexes by reductive cleavage,"MEF2A/DNA complex; probe 10-100 μM, UV 15 min, 200 mM TCEP at 37° C. overnight",can be released by reductive cleavage of the disulfide bond
same,formation of covalent MEF2/DNA crosslinked complex,"MEF2A/DNA complex; probe + UV, denaturing gel",highly efficient crosslinking
same,effect of DTT treatment on the crosslinked NFAT-DNA complex,"NFAT1/DNA complex; 25 μM probe, DTT 100 mM, 50 degree C., 30 min, FIG. 5H",reduced significantly
same,formation of covalent NFAT1/DNA crosslinked complex stable under denaturing SDS-PAGE,NFAT1/DNA complex; listed as 4AMT-LC-SDAD,highly efficient crosslinking; also recorded: crosslinked NFAT to its DNA substrate efficiently
"O=c1ccc2cc3ccoc3cc2o1 [Psoralen, psoralen]",affinity for double stranded DNA and RNA,[1],μM (Kd) affinity
same,efficiency of covalent crosslinking to DNA,[1],up to 80%
"CC1(CCC(=O)NCCCCCC(=O)NCCCCNCCCNC(=O)CCCOc2c3occc3cc3ccc(=O)oc23)N=N1 [SPB-Spermidine-AD, 6-(3-(3-methyl-3H-diazirin-3-yl)propanamido)-N-(4-((3-(4-((7-oxo-7H-furo[3,2-g]chromen-9-yl)oxy)butanamido)propyl)amino)butyl)hexanamide]",apparent crosslinking efficiency (intensity of the complex band over the total DNA intensity),NFAT1/DNA complex,22.5%
same,crosslinking efficiency normalized against the total protein/DNA complex,NFAT1/DNA complex,~47%
same,formation of covalent NFAT1/DNA crosslinked complex stable under denaturing SDS-PAGE,NFAT1/DNA complex,dosage dependent crosslinking of NFAT1/DNA complexes
same,crosslinking of the Nkx2.5/DNA complex,Nkx2.5/DNA complex,significant crosslinking of the Nkx2.5/DNA complex
same,effect on the binding of NFAT1 to DNA,DNA binding by NFAT1,little or no effect
same,crosslinking of the p53/DNA complex,p53/DNA complex,significant crosslinking of the p53/DNA complex
B1,binding result,NFAT1 DNA binding domain,binds
